Laboratory results: patent US9937235B2, “Lipidated peptides as anti-obesity agents” (USTAV ORGANICKE CHEMIE A BIOCHEMIE AKADEMIE VED CR, V.V.I, priority 2012, dated 2018)
Where a SMILES comes first, the peptide text is derived from it. Where no end group is shown, it is not given here. [ ]: non-standard residue; d: D form. The star is where a group is joined. 1Nal = N[C@@H](Cc1cccc2ccccc12)C(=O)O; Tridecanoyl = CCCCCCCCCCCCC(=O)*; Nle = CCCC[C@H](N)C(=O)O; Dap = NC[C@H](N)C(=O)O

Experiments:
[1] = system: fasted C57BL/6 mice; assay: Food intake in fasted mice after SC administration; assay type: in vivo, mouse; settings: SC administration; for % control: food intake vs saline
Procedure, shortened: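 Male C57BL/6 mice, food-deprived 17 h, received saline, PrRP or lipidated analogs either SC at 1-10 mg/kg or ICV into the third ventricle at 4 nmol/mouse.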

[2] = system: MAPK/ERK1/2 signaling pathway in RC-4B/C cells; assay: MAPK/ERK1/2 signaling in RC-4B/C cells (Western blot); assay type: cell-based, rat; settings: 10^−6 mol·l^−1, 5 minute incubation
Method: RC-4B/C cells, which were used to determine if lipidated PrRP20 analogs are able to initiate the MAPK/ERK1/2 signaling pathway, were grown in 6-well plates up to the optimal density of […]. Seventeen hours before sample harvest, the growth medium was replaced by a serum-free medium lacking epidermal growth factor (EGF). The respective lipidated PrRP analog was added to each well in the final concentration of 10^−6 mol·l^−1. After a 5 minute incubation at 37° C., the plate was placed on ice and each well was rinsed three times with PBS pH 7.4 (137 mmol·l^−1 NaCl, 2.7 mmol·l^−1 KCl, 8 mmol·l^−1 Na2HPO4.2H2O a 1.76 mmol·l^−1 KH2PO4) and cooled to 4° C. […] Samples were collected in at least three independent experiments.
To determine if the lipidated PrRP20 analogs initiated the MAPK/ERK1/2 signaling pathway, Western blot analysis was used. Electrophoresis was performed on 5%/12% polyacrylamide gel in the presence of SDS (SDS-PAGE) on the instrument MiniProtean 3 (BioRad, Herkules, Calif., USA). Samples that were loaded on the gel were first disintegrated by ultrasound, then heated at 100° C. for 2 minutes, and centrifuged for 5 minutes at 500×g at room temperature. […] Electrophoresis was performed at a constant voltage of 100 V for 10 minutes, or for 60 minutes at 150 V.
To show the presence of phosphorylated proteins in the samples, the proteins from the SDS-PAGE gel were transferred to the Immobilon™-P PVDF (polyvinylidene difluoride) membrane (Sigma-Aldrich, USA). The transfer was performed in blotting buffer at pH 8.3 (25 mmol·l^−1 Tris, 192 mmol·l^−1 glycine and 20% methanol) for 20 hours at 4° C. at a constant voltage of 30 V.
After the protein transfer to the PVDF membrane, the membranes were washed for 5 minutes in TBS washing buffer (20 mmol·l^−1 Tris, 140 mmol·l^−1 NaCl and 0.1% Tween-20) and then incubated for 1 hour in blocking buffer (TBS with 5% non-fat milk powder and 5 mmol·l^−1 Na3VO4 and 50 mmol·l^−1 NaF) at room temperature. Further, the membranes were washed three times for 5 minutes using the TBS washing buffer. The membranes were then incubated with the primary antibody against phospho-p44/42 MAPK(Thr202/Tyr204) (Cell Signaling Technology, Beverly, USA) which was diluted in blocking buffer at 1:1000. After the next three washes with the TBS washing buffer for 5 minutes, the membranes were incubated for 1 hour with rabbit secondary antibody labeled with peroxidase (Sigma, St. Louis, USA) which was diluted in blocking buffer at 1:12,000.
The membranes were then washed three times in TBS washing buffer for 5 minutes and then the solution Femto (Pierce SuperSignal, Thermo Fisher Scientific, Rockford, Ill., USA) was applied. The induced chemiluminiscence was detected by a CCD camera (LAS 3000, Fuji Photo Film GmBH, Düsseldorf, Germany).
To assess the initiation of signaling pathways, a densitometric analysis using the program Quantity One (BioRad, Hercules, Calif., USA) was used. For statistical evaluation of the statistically significant response of the cellular signaling, one-way ANOVA with subsequent Dunnett post-hoc test was used. Data was statistically significant at P<0.05.

[3] = system: fasted C57BL/6 mice; assay: Food intake in fasted mice after ICV administration; assay type: in vivo; settings: 4 nmol/mouse; for % control: food intake vs saline
Method: Male C57BL/6 mice (An Lab, Prague 4) were bred in the accredited animal facility in the Institute of Organic Chemistry and Biochemistry, Czech Academy of Sciences, Prague, at the Institute of Molecular Genetics, Prague 4, at the temperature of 22±2° C. with access to food and water ad libitum. The day/night cycle was 12/12 hours (light turned on at 6:00 am). Animals were treated according to the Animal Protection Act (Act No. 246/1992). The males were fed standard chow diet St-1 (Mlýn Kocanda, Praha, Czech Republic) which contained 66% saccharides, 25% proteins and 9% lipids with a caloric value of 3.4 kcal/g.
The food was withdrawn 17 hours prior to injection of lipidated peptide and free access to water was maintained. The administration of saline, PrRP or lipidated analogs was performed either by SC injection at doses of 1-10 mg/kg (volume 0.2 ml/mouse), or by ICV using infusion pump (cannulae were inserted into the third brain ventricle 4 days before the experiment following the procedure of Maixnerová et al. (Maixnerová et al., 2011)). The single dose of peptide was 4 nmol/mouse (5 μl/mouse).
Fifteen minutes after the lipidated peptide administration, the mice were given pre-weighed food. The food was then weighed every 30 minutes for 5-10 hours. The administration of every dose was performed at least twice and one group of mice consisted of at least 6 mice. The results were presented as % of food intake as compared with the control group injected with saline.
Statistical evaluation was performed using program Graph-Pad Prism Software (San Diego, Calif., USA), and the one-way ANOVA with a subsequent Dunnettovým post-hoc test. The difference in food intake between mice injected with saline and mice injected with the examined peptide were considered statistically significant at P<0.05.

[4] = target: T1, rat PrRP receptor (GPR10) in RC-4B/C cells (Rattus norvegicus, UniProt Q64121); assay: Competitive binding to rat pituitary RC-4B/C cells; settings: ^125I-rat PrRP31, RC-4B/C cells
T1 construct: host or cells: RC-4B/C rat pituitary cell line
T1 sequence (Q64121 1-370): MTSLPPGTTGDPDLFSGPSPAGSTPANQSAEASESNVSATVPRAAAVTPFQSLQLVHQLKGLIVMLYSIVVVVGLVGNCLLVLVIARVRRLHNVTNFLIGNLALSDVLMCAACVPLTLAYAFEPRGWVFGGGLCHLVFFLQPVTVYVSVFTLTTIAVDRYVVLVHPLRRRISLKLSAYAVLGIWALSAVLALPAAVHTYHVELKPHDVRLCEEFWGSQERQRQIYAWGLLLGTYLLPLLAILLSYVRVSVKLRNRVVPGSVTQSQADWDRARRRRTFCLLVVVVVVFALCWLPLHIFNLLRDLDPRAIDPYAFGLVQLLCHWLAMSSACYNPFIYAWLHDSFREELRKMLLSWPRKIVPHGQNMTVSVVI
Method: Competitive binding experiments were performed according to Motulsky and Neubig (Motulsky, A., et al., “Analyzing radioligand binding data,” Curr Protoc Neurosci, Chapter 7, Unit 7.5, 2002). The rat pituitary cell line RC-4B/C (ATCC, Manassas, USA) was grown on 24-well plates which had their bottom coated with polyethyleneimine. The cells were grown to the optimal density of 300-450 thousand per well. […] Plates were incubated for 60 minutes at room temperature. After incubation, the cells were solubilized in 0.1 mol/l solution of NaOH and the radioactivity bound to the cells was counted using a γ-counter. The experiments were performed in duplicate and repeated at least three times. For evaluation of competitive binding experiments, the program Graph Pad Prism Software (San Diego, Calif., USA) was used. A method of nonlinear regression assuming one-site binding was used.

[5] = 45 minutes, dose not stated for these substances
[6] = 300 minutes, dose not stated for these substances

Compound	food intake [1, 5]	% control [1, 5]	food intake [1, 6]	% control [1, 6]	ERK signaling [2]	food intake ([3]; 45 minutes)	% control ([3]; 45 minutes)	food intake ([3]; 300 minutes)	% control ([3]; 300 minutes)	% of PrRP31 binding [4]	food intake ([1]; 45 minutes, 5 mg/kg)	% control ([1]; 45 minutes, 5 mg/kg)	food intake ([1]; 300 minutes, 5 mg/kg)	% control ([1]; 300 minutes, 5 mg/kg)	food intake ([1]; 45 minutes, 10 mg/kg)	% control ([1]; 45 minutes, 10 mg/kg)	food intake ([1]; 300 minutes, 10 mg/kg)	% control ([1]; 300 minutes, 10 mg/kg)
TPDINPAWYTGRGIRPVGRF-NH2 [PrRP20, reference compound]	0.32 g	100%	1.1 g	100%	agonist	0.32 g	68%	1.29 g	100%	143%	–	–	–	–	–	–	–	–
CCCCCCCCCCCCC(=O)NC[C@H](N)C(=O)N[C@@H](CCCNC(=N)N)C(=O)N[C@@H](C)C(=O)N[C@@H](Cc1c[nH]cn1)C(=O)N[C@@H](CCC(N)=O)C(=O)N[C@@H](Cc1c[nH]cn1)C(=O)N[C@@H](CO)C(=O)N[C@@H](CCCC)C(=O)N[C@@H](CCC(=O)O)C(=O)N[C@H](C(=O)N[C@@H](CCCNC(=N)N)C(=O)N[C@H](C(=O)N1CCC[C@H]1C(=O)N[C@@H](CC(=O)O)C(=O)N[C@H](C(=O)N[C@@H](CC(N)=O)C(=O)N1CCC[C@H]1C(=O)N[C@@H](C)C(=O)N[C@@H](Cc1c[nH]c2ccccc12)C(=O)N[C@@H](Cc1ccc(O)cc1)C(=O)N[C@H](C(=O)NCC(=O)N[C@@H](CCCNC(=N)N)C(=O)NCC(=O)N[C@H](C(=O)N[C@@H](CCCNC(=N)N)C(=O)N1CCC[C@H]1C(=O)N[C@H](C(=O)NCC(=O)N[C@@H](CCCNC(=N)N)C(=O)N[C@@H](Cc1ccccc1)C(N)=O)C(C)C)[C@@H](C)CC)[C@@H](C)O)[C@@H](C)CC)[C@@H](C)O)[C@@H](C)O [Analog 4] (H-[Dap](Tridecanoyl)RAHQHS[Nle]ETRTPDINPAWYTGRGIRPVGRF-NH2)	–	–	–	–	agonist	0.38 g	71%	1.4 g	105%	967%	0.07 g	30%	1.04 g	101%	–	–	–	–
CCCC[C@H](NC(=O)[C@H](CO)NC(=O)[C@H](Cc1c[nH]cn1)NC(=O)[C@H](CCC(N)=O)NC(=O)[C@H](Cc1c[nH]cn1)NC(=O)[C@H](C)NC(=O)[C@H](CCCNC(=N)N)NC(=O)[C@@H](N)CN)C(=O)N[C@@H](CCC(=O)O)C(=O)N[C@H](C(=O)N[C@@H](CCCNC(=N)N)C(=O)N[C@H](C(=O)N1CCC[C@H]1C(=O)N[C@@H](CC(=O)O)C(=O)N[C@H](C(=O)N[C@@H](CC(N)=O)C(=O)N1CCC[C@H]1C(=O)N[C@@H](C)C(=O)N[C@@H](Cc1c[nH]c2ccccc12)C(=O)N[C@@H](Cc1ccc(O)cc1)C(=O)N[C@H](C(=O)NCC(=O)N[C@@H](CCCNC(=N)N)C(=O)NCC(=O)N[C@H](C(=O)N[C@@H](CCCNC(=N)N)C(=O)N1CCC[C@H]1C(=O)N[C@H](C(=O)NCC(=O)N[C@@H](CCCNC(=N)N)C(=O)N[C@@H](Cc1cccc2ccccc12)C(N)=O)C(C)C)[C@@H](C)CC)[C@@H](C)O)[C@@H](C)CC)[C@@H](C)O)[C@@H](C)O [Analog 7] (H-[Dap]RAHQHS[Nle]ETRTPDINPAWYTGRGIRPVGR[1Nal]-NH2)	–	–	–	–	agonist	–	–	–	–	8%	–	–	–	–	0.16 g	49%	0.88 g	81%
